Experimental data reported in ChEMBL document CHEMBL1914405, “Discovery of novel spirocyclic inhibitors of fatty acid amide hydrolase (FAAH). Part 1: identification of 7-azaspiro[3.5]nonane and 1-oxa-8-azaspiro[4.5]decane as lead scaffolds” (Bioorg Med Chem Lett, 2011).
The source made the active and inactive calls. No cut-off for these calls is given here.

What was measured:
[1] = target: T1, Fatty-acid amide hydrolase 1 (Homo sapiens) (UniProt O00519); experiment: Ratio of Kinact to Ki for human FAAH by enzyme coupled assay
T1 sequence (whole entry): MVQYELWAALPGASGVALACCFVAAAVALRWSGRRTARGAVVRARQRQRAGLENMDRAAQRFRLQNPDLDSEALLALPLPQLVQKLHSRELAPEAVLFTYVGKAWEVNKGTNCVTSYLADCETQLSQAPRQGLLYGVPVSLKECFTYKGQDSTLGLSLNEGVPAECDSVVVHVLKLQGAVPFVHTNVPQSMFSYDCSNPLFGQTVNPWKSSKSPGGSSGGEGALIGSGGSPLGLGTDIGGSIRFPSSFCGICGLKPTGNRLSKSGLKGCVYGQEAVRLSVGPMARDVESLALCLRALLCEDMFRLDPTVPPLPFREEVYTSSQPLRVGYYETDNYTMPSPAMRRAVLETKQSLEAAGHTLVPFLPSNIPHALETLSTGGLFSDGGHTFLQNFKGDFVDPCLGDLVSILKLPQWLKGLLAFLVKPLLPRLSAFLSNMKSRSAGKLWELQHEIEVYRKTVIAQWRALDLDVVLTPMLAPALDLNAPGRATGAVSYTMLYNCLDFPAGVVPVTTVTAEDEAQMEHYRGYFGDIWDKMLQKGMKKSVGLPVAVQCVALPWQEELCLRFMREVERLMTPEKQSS

[2] = target: Voltage-gated inwardly rectifying potassium channel KCNH2 (Homo sapiens, UniProt Q12809); experiment: Inhibition of human ERG
Chain of Voltage-gated inwardly rectifying potassium channel KCNH2 (Q12809 whole entry): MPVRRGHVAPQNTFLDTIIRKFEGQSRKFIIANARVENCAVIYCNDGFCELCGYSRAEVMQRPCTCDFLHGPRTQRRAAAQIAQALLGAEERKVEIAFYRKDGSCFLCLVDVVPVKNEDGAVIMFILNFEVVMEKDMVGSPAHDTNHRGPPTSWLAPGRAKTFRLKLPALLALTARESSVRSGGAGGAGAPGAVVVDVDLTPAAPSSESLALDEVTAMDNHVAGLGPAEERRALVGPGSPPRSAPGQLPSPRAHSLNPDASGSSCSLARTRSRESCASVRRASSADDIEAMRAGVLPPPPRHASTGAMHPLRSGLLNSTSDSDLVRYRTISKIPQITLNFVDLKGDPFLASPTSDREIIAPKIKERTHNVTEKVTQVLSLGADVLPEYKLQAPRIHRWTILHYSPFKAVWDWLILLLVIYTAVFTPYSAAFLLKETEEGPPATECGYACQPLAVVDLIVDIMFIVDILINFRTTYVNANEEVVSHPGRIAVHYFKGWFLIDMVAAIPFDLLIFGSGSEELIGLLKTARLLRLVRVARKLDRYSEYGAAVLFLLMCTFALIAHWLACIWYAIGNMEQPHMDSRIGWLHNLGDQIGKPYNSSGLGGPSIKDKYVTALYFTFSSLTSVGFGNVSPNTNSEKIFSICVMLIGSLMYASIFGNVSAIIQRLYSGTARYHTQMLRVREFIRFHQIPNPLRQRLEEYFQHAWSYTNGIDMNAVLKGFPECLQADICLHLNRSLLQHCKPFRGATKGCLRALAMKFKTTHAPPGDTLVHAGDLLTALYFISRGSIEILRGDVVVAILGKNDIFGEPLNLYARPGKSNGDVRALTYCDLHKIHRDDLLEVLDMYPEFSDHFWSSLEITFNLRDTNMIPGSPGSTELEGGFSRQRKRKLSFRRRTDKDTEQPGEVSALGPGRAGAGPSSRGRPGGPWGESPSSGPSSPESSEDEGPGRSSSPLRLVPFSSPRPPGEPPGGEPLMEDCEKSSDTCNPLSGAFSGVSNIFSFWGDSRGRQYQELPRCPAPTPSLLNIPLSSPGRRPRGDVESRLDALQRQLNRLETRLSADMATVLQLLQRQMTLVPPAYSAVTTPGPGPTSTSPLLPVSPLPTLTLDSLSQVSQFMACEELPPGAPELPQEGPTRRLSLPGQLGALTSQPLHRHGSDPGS

[3] = tested on: Rattus norvegicus; experiment: Analgesic activity against complete Freund's adjuvant-induced pain in rat at 25 mg/kg, ip; type: functional, organism-based; parameters: dose 25 mg/kg

| SMILES | Ratio [1] [M⁻¹ s⁻¹] | inhibition (INH) [2] | Activity [3] |
| --- | --- | --- | --- |
| O=C(Nc1cccnn1)N1CCC2(CC1)C[C@H](c1cccc(Oc3ccc(C(F)(F)F)cn3)c1)CO2 | 3040 | Active |  |
| O=C(Nc1cccnn1)N1CCC2(CC1)CC(CCc1cccc(Oc3ccc(C(F)(F)F)cn3)c1)C2 | 344 |  |  |
| O=C(Nc1cccnn1)N1CCC2(CC1)C[C@@H](c1cccc(Oc3ccc(C(F)(F)F)cn3)c1)CO2 | 1340 |  |  |
| O=C(Nc1cccnn1)N1CCC2(CC1)CN(c1cccc(Oc3ccc(C(F)(F)F)cn3)c1)C2 | 18.3 |  |  |
| O=C(Nc1cccnn1)N1CCC2(CC1)CC(c1cccc(Oc3ccc(C(F)(F)F)cn3)c1)C2 | 1570 | Active |  |
| O=C(Nc1cccnc1)N1CCC2(CC1)CC(Cc1cccc(Oc3ccc(C(F)(F)F)cn3)c1)CO2 (stereo not drawn) | 846 |  |  |
| O=C(Nc1cccnn1)N1CCC2(CC1)CC(Cc1cccc(Oc3ccc(C(F)(F)F)cn3)c1)C2 | 272 |  |  |
| O=C(Nc1cccnn1)N1CCC2(CCC(c3cccc(Oc4ccc(C(F)(F)F)cn4)c3)O2)CC1 (stereo not drawn) | 229 |  |  |
| O=C(Nc1cccnc1)N1CCC2(CC1)CC(c1cccc(Oc3ccc(C(F)(F)F)cn3)c1)CO2 (stereo not drawn) | 2080 |  |  |
| O=C(Nc1cccnn1)N1CCC2(CC1)CC(c1cccc(Oc3ccc(C(F)(F)F)cn3)c1)CO2 (racemic) | 3130 |  |  |
| O=C(Nc1cccnn1)N1CCC2(CCC(c3cccc(Oc4ccc(C(F)(F)F)cn4)c3)C2)CC1 (stereo not drawn) | 307 |  |  |
| Cc1noc(NC(=O)N2CCC3(CC2)CC(c2cccc(Oc4ccc(C(F)(F)F)cn4)c2)CO3)c1C (stereo not drawn) | 515 |  |  |
| O=C(Nc1cccnc1)N1CCC2(CC1)CC(c1cccc(Oc3ccc(C(F)(F)F)cn3)c1)C2 | 914 |  |  |
| Cc1noc(NC(=O)N2CCC3(CC2)CC(c2cccc(Oc4ccc(C(F)(F)F)cn4)c2)C3)c1C | 1760 | Active | Active |
